“And” between values parts separate entries of the source, which are not always exact repeats. Equal values may be shown once.
Key:
[1] = test system: murine integrin α4; assay: Antisense inhibition of murine integrin α4 protein expression in IC-21 macrophage cells (flow cytometry, CD49d-PE); format: cell-based, mouse; details: for % Control (integrin α4 protein) / % Inhib (integrin α4 protein): Table 11
Experimental: Murine IC-21 macrophage cells (American Type Culture Collection, Manassas, Va.) were used for further study. Additional oligonucleotides were designed to target murine integrin α4. These are shown in Table 10; all 2' MOE nucleotides are shown in bold and remaining positions are 2' deoxy. All 2'-MOE cytosines in these compounds are 5' methylcytosines. IC-21 cells were seeded at 5×10^4 cell/well plates two days before assay. […] Wells were triplicates.
Cells (triplicates) were seeded at 2.5×10^4 cells/well in 24-well plates the day before treatment. Oligonucleotide concentrations were 0.2, 1, 5, 25 and 50 nM in 3 ug/ml LIPOFECTIN. Cells were harvested with 2 mM EDTA for 4 minutes, then 1 ml of 2% BSA, 0.2% azide was added per contents of each well.
IC-21 cells were treated with 0.3, 1, 3, 10 and 30 nM oligonucleotide with 3 ug/ml LIPOFECTIN for 4 hours. Cells were incubated for 24 hours, harvested with trypsin, stained with 2 ug/ml CD49d-PE and rat IgG2B as in previous examples.
These compounds were tested for ability to inhibit integrin α4 protein expression.

[2] = test system: human integrin α4; assay: Inhibition of human integrin α4 protein levels by antisense oligonucleotides (LIPOFECTIN, flow cytometry with CD49d-FITC) in A375 melanoma cells; format: cell-based; design: % Inhib.: tested at 200 nM; details: for % CONTROL 48 hr / % INHIB 48 hr / % CONTROL 72 hr / % INHIB 72 HR: Table 2, A375
Source text: Integrin α4 protein levels can be quantitated in a variety of ways well known in the art, such as immunoprecipitation, Western blot analysis (immunoblotting), ELISA or fluorescence-activated cell sorting (FACS). Antibodies directed to integrin α4 can be identified and obtained from a variety of sources, such as the MSRS catalog of antibodies (Aerie Corporation, Birmingham, Mich.), or can be prepared via conventional antibody generation methods.
Target sites are indicated by nucleotide numbers, as given in the sequence source reference (GenBank accession no. L12002), to which the oligonucleotide binds. All compounds in Table 1 are 18 nucleotides in length, with a phosphorothioate backbone and a centered 10-base deoxynucleotide gap flanked by 2'-methoxyethoxy (2'MOE) wings. Human A375 melanoma cells (American Type Culture Collection, Manassas, Va.) were plated at 2000 cells/cm^2 two days before oligonucleotide treatment. Cells were treated with oligonucleotides at a dose of 200 nM oligonucleotide and 6 ug/ml LIPOFECTIN for four hours. Cells were incubated overnight and harvested with 2 mM EDTA in PBS. Cells were washed in 2% bovine serum albumin, 0.2% sodium azide in D-PBS at 4° C. Cells were centrifuged at 200×g, and the supernatant was decanted. […] Antibodies were incubated with the cells for 30 minutes at 4° C. in the dark, under gentle agitation. Cells were washed again as above and then resuspended in 0.3 ml of FacsFlow buffer with 0.5% formaldehyde. Cells were analyzed on Becton Dickinson FACScan. Results are expressed as percentage of control expression based on mean fluorescence intensity.
Cells were harvested with trypsin at 48 and 72 hours after oligonucleotide treatment and stained with 2 ug/ml CD49d-FITC as in the previous example.
Where backbones are mixed, linkages are shown as "s" for phosphorothioate (P=S or PS) and "o" for phosphodiester (P=O or PO). Where target region is indicated as `M62841,` oligonucleotides are targeted to the promotor region whose sequence is described in GenBank Accession No. M62841. Remaining oligonucleotides are targeted to the sequence described in Genbank Accession No. L12002 and their target sites on the L12002 sequence are indicated.
Target sites refer to nucleotide numbers on the target sequence (GenBank Accession No. L12002) to which the oligonucleotides hybridize.
Oligonucleotides were synthesized as "gapmers" consisting of a 9-nucleotide region of deoxynucleotides flanked by three 2'-O-methoxyethyl(2'-MOE) nucleotides on the 5' end and eight 2'-MOE nucleotides on the 3' end. 2'-MOE nucleotides are shown in bold in the table. Oligonucleotides were synthesized with phosphorothioate backbones throughout, and all cytosines are 5-methylcytosines.

[3] = IC-21 cells, 25 nM, triplicates
[4] = IC-21 cells, 25 nM, triplicates, 0.025 µM
[5] = Table 1, A375 cells, 200 nM oligonucleotide, 6 ug/ml LIPOFECTIN
[6] = Table 24, A375 cells, lipofectin, as Example 8

16477 (CGGACCAGTACCAGGGTTAC; phosphorothioate, 2'-deoxy, further chemistry not given here) [compound 16477]
% Control (integrin α4 protein) [1, 3]: 96%

16436 (CACCTCGCTTCCGCAGCCAT; phosphorothioate, 2'-MOE/deoxy, further chemistry not given here) [compound 16436]
% Control (integrin α4 protein) [1, 3]: 47% | % Inhib (integrin α4 protein) [1, 4]: 53% and > 50%

16479 (ACCTCCTCGCTCACGCGCTA; phosphorothioate DNA, further chemistry not given here) [compound 16479]
% Control (integrin α4 protein) [1, 3]: 96%

17046 (CCGCAGCCATGCGCTCTTGG; phosphorothioate, 2'-modified, further chemistry not given here) [compound 17046]
% Control ([1]; Table 16, 0.3 nM): 161% | % Control ([1]; Table 16, 1 nM): 123% | % Control ([1]; Table 16, 3 nM): 125% | % Control ([1]; Table 16, 10 nM): 75% | % Inhib. ([1]; Table 16, 10 nM): 25%

16437 (CGCTTCCGCAGCCATGCGCT; phosphorothioate, 2'-MOE/deoxy, further chemistry not given here) [compound 16437]
% Control (integrin α4 protein) [1, 3]: 36% | % Inhib (integrin α4 protein) [1, 4]: 64% and > 50%

16432 (CCGCAGCCATGCGCTCTTGG; phosphorothioate, 2'-MOE/deoxy, further chemistry not given here) [compound 16432]
% Control (integrin α4 protein) [1, 3]: 53% | % Inhib (integrin α4 protein) [1, 3]: 47%

16434 (CACCTCGCTTCCGCAGCCAT; phosphorothioate, 2'-MOE/deoxy, further chemistry not given here) [compound 16434]
% Control (integrin α4 protein) [1, 3]: 33% | % Inhib (integrin α4 protein) [1, 4]: 67% and > 50%

17047 (CCGCAGCCATGCGCTCTTGG; phosphorothioate, 2'-modified, further chemistry not given here) [compound 17047]
% Control ([1]; Table 16, 0.3 nM): 132% | % Control ([1]; Table 16, 1 nM): 107% | % Control ([1]; Table 16, 3 nM): 77% | % Inhib. ([1]; Table 16, 3 nM): 23% | % Control ([1]; Table 16, 10 nM): 36% | % Inhib. ([1]; Table 16, 10 nM): 67%

16435 (CACCTCGCTTCCGCAGCCAT; phosphorothioate, 2'-MOE/deoxy, further chemistry not given here) [compound 16435]
% Control (integrin α4 protein) [1, 3]: 30% | % Inhib (integrin α4 protein) [1, 4]: 70% and > 50%

16430 (antisense GGCCACTGACCAGAGTTGCA; phosphorothioate, 2'-MOE/deoxy gapmer, further chemistry not given here) [compound 16430]
% Control (integrin α4 protein) [1, 3]: 50% | % Inhib (integrin α4 protein) [1, 4]: 50% and > 50%

16428 (antisense GGCCACTGACCAGAGTTGCA; phosphorothioate, 2'-MOE/deoxy gapmer, further chemistry not given here) [compound 16428]
% Control (integrin α4 protein) [1, 3]: 67% | % Inhib (integrin α4 protein) [1, 3]: 33%

17045 (CCGCAGCCATGCGCTCTTGG; phosphorothioate, 2'-modified, further chemistry not given here) [compound 17045]
% Control ([1]; Table 16, 0.3 nM): 109% | % Control ([1]; Table 16, 1 nM): 65% | % Inhib. ([1]; Table 16, 1 nM): 35% | % Control ([1]; Table 16, 3 nM): 34% | % Inhib. ([1]; Table 16, 3 nM): 66% | % Control ([1]; Table 16, 10 nM): 12% | % Inhib. ([1]; Table 16, 10 nM): 88%

16431 (CCGCAGCCATGCGCTCTTGG; phosphorothioate, 2'-MOE/deoxy, further chemistry not given here) [compound 16431]
IC50 ([1]; IC-21 cells): ~1 nM | % Control (integrin α4 protein) [1, 3]: 35% | % Inhib (integrin α4 protein) [1, 4]: 65% and > 50% | % Inhib. ([1]; Table 12, 0.2 nM, triplicates): 18% | % of control ([1]; Table 12, 0.2 nM, triplicates): 82% | % Inhib. ([1]; Table 12, 1 nM, triplicates): 43% | % of control ([1]; Table 12, 1 nM, triplicates): 57% | % Inhib. ([1]; Table 12, 5 nM, triplicates): 66% | % of control ([1]; Table 12, 5 nM, triplicates): 34% | % Inhib. ([1]; Table 12, 25 nM, triplicates): 68% | % of control ([1]; Table 12, 25 nM, triplicates): 32% | % Inhib. ([1]; Table 12, 50 nM, triplicates): 70% | % of control ([1]; Table 12, 50 nM, triplicates): 30%

24475 (GCCCTTATATGAGAAACA; phosphorothioate, 2'-MOE/deoxy, further chemistry not given here) [compound 24475]
inhibition (Example 10) ([2]; Example 10 assay, dose not stated): ≥ 40% | % Control (integrin α4 protein) [2, 5]: 48% | % CONTROL 48 hr ([2]; 50 nM): 60% | % INHIB 48 hr ([2]; 50 nM): 40% | % CONTROL 72 hr ([2]; 50 nM): 69% | % INHIB 72 HR ([2]; 50 nM): 31% | % CONTROL 48 hr ([2]; 100 nM): 31% | % INHIB 48 hr ([2]; 100 nM): 69% | % CONTROL 72 hr ([2]; 100 nM): 44% | % INHIB 72 HR ([2]; 100 nM): 56% | % CONTROL 48 hr ([2]; 200 nM): 30% | % INHIB 48 hr ([2]; 200 nM): 70% | % CONTROL 48 hr ([2]; 400 nM): 39% | % INHIB 48 hr ([2]; 400 nM): 61% | % CONTROL 72 hr ([2]; 400 nM): 52% | % INHIB 72 HR ([2]; 400 nM): 48% | % Control ([2]; Table 4, 10 nM): 97% | % Control ([2]; Table 4, 30 nM): 73% | % Inhib. ([2]; Table 4, 30 nM): 27% | % Control ([2]; Table 4, 100 nM): 84% | % Inhib. ([2]; Table 4, 100 nM): 16% | % Control ([2]; Table 4, 300 nM): 55% | % Inhib. ([2]; Table 4, 300 nM (highest dose)): 45%

107253 (antisense TCTTTGGCTGTATTATTACC; chemistry not given here) [compound 107253]
% Control [2, 6]: 29%

24449 (GCACGTCTGGCCGGGATT; chemistry not given here) [compound 24449]
% Control (integrin α4 protein) [2, 5]: 61% | % Inhib (integrin α4 protein) [2, 5]: 39%

24744 (AGACGTTATGGCTATTCTCT; phosphorothioate, 2'-MOE, 5-methyl-C, further chemistry not given here) [compound 24744]
% Control ([2]; Table 4, 10 nM): 121% | % Control ([2]; Table 4, 30 nM): 110% | % Control ([2]; Table 4, 100 nM): 118% | % Control ([2]; Table 4, 300 nM): 118%

107241 (antisense GATACTGAGGTCCTCTTCCG; chemistry not given here) [compound 107241]
% Control [2, 6]: 36%

107232 (antisense CCGGTTTCTGCCGCCGAGCC; chemistry not given here) [compound 107232]
% Control [2, 6]: 83% | % Inhib. [2, 6]: 17%

100025 (antisense CCCAGCACATCGGCTCTCGG; chemistry not given here) [compound 100025]
% Control [2, 6]: 97% | % Inhib. [2, 6]: 3%

107256 (antisense GAGGCAAGCACATATGGTAA; chemistry not given here) [compound 107256]
% Control [2, 6]: 45%

107234 (antisense CTTCCCAAGCCATGCGCTCT; chemistry not given here) [compound 107234]
% Control [2, 6]: 47%

24743 (GAAGGCCCCTGGGGAACATT; phosphorothioate, 2'-MOE, 5-methyl-C, further chemistry not given here) [compound 24743]
% Control ([2]; Table 4, 10 nM): 96% | % Control ([2]; Table 4, 30 nM): 121% | % Control ([2]; Table 4, 100 nM): 117% | % Control ([2]; Table 4, 300 nM): 105%

24741 (AGACGTTATGGCTATTCTCT; phosphorothioate deoxy, further chemistry not given here) [compound 24741]
% Control ([2]; Table 4, 10 nM): 109% | % Control ([2]; Table 4, 30 nM): 113% | % Control ([2]; Table 4, 100 nM): 125% | % Control ([2]; Table 4, 300 nM): 127%

107246 (antisense TAATCATCATTGCTTTTACT; chemistry not given here) [compound 107246]
% Control [2, 6]: 42%

— US6258790A, “Antisense modulation of integrin α4 expression” (Isis Pharmaceuticals, Inc., priority 1999, dated 2001)
